“Also recorded” adds a separate entry of the source.
How the values were obtained:
[1] = test system: liver cancer cell (HepG2, Huh7 and Hep3B); test: Liver cancer cell proliferation; assay type: cell-based; details: for liver cancer cell proliferation and apoptosis, alone and co-treated with sorafenib (confirmation of the STF-083010 data): data not shown
Description: (§1) FIG. 3A-B: Inhibition of IRE1α RNase signalling with STF potentiates the effectiveness of Sorafenib in reducing liver cancer cell proliferation and inducing apoptosis. Effect of Sorafenib (SORA, 5 μM), STF-083010 (STF, 60 μM) and their combination on (A) liver cancer cell proliferation (HepG2, Huh7 and Hep3B) and on (B) inducing apoptosis. STF-083010 was added one hour before SORA. Stimulations were performed during 24 hours. $p<0.05 when comparing treated to untreated counterpart. Results are expressed as mean with SEM *p<0.05, **p<0.01, ***p<0.001 and ****p<0.0001.
(§2) FIG. 4: Hyperactive IRE1α RNase triggers secretion of pro-inflammatory markers. Effect of Sorafenib (SORA, […]), Ac-YVAD-CMK (YVAD, 25 μM) and their combination on liver cancer cell proliferation (HepG2) and on inducing apoptosis. Ac-YVAD-CMK (YVAD) was added one hour before SORA. Stimulations were performed during 24 hours. $p<0.05 when comparing treated to untreated counterpart. Results are expressed as mean with SEM *p<0.05, **p<0.01, ***p<0.001 and ****p<0.0001.
FIG. 5A-B: Co-treatment enhancing apoptosis via IRE1α kinase activity. Effect of Sorafenib (SORA, 5 μM), STF-083010 (STF, 60 μM) and their combination on HepG2 cells proliferation with or without (A) JNK inhibitor SP600125 (SP, 50 μM) pre-treatment or (B) Necrostatin (Nec-1, 50 μM) pre-treatment. Stimulations were performed during 24 hours. $p<0.05 when comparing treated to untreated counterpart. Results are expressed as mean with SEM *p<0.05, **p<0.01, ***p<0.001 and ****p<0.0001.

xenograft HepG2 cells = test: Xenograft mouse model of HCC, tumor volume; assay type: in vivo, mice
Description: FIG. 6A-B: Inhibition of IRE1α RNase activity with STF potentiates Sorafenib action in vivo. (A) Protocol timeline for Sorafenib (30 mg/kg i.p. daily) and/or STF-083010 (30 mg/kg i.p. twice a week) injections in mice with xenograft HepG2 cells. (B) Effect of SORA, STF, and their combination on tumor volume in mice. $p<0.05 when comparing treated to untreated counterpart. Results are expressed as mean with SEM *p<0.05.

IRE1α RNase activity = target: T1, IRE1α RNase activity (Mus musculus, UniProt Q9EQY0); test: IRE1α RNase signaling (XBP1 mRNA, sXBP1 protein) in primary hepatocytes from BI-1−/− or WT mice; assay type: cell-based; details: BI-1−/− primary hepatocytes; STF-083010 60 μM
T1 construct: Hepatocytes from mouse liver were isolated by a two-step collagenase procedure; endogenous in cells; host or cells: primary hepatocytes isolated from livers of BI-1−/− and WT mice
Description: (§3) Total RNA was extracted from liver tissue or cells then reverse-transcribed as previously described15. Real-time quantitative PCR was performed using the ABI PRISM 7500/Step-One Fast Real Time PCR System following the manufacturer's protocols in C3M genomics facilities. See the Supporting Methods for TaqMan gene expression assays.
(§4) Total protein was isolated from snap-frozen livers or primary hepatocytes homogenized in detergent-containing buffer, normalized for protein content (40 μg/tissue sample and 20 μg/cell sample), and analyzed by SDS-PAGE (8-15% gels) immunoblotting as previously described15. Western blot analyses were performed using antibodies described in Supporting Methods and detected with an enhanced chemiluminescence method (Amersham Biosciences, Piscataway, NJ, USA). Immunoblots were scanned and the signals were quantified using ImageJ software.
Hepatocytes from mouse liver were isolated by a two-step collagenase procedure, as we described18,23 and cultured in media detailed in Supporting Methods. […] After 48 hr of transfection, cells were treated with TM (1 μg/ml) or LPS (100 ng/ml) for the determined times. […] Cell viability was determined by a colorimetric assay (MTT) detailed in Supporting Methods. […]

NLRP3 inflammasome = test: Caspase-11 and NLRP3 overexpression in LPS-treated primary hepatocytes; assay type: cell-based, mouse; details: LPS-treated BI-1−/− primary hepatocytes; STF-083010 60 μM
Description: as §4
Hepatocytes from mouse liver were isolated by a two-step collagenase procedure, as we described18,23 and cultured in media detailed in Supporting Methods. When indicated, primary hepatocytes were transfected with Stealth siRNA (targeting BI-1, IRE1α, XBP1 or CHOP with the corresponding control of Low or Medium CG) at 30 nM using Lipofectamine RNAiMAX (ThermoFisher Scientific, Courtaboeuf, France) according to the manufacturer's instructions. After 48 hr of transfection, cells were treated with TM (1 μg/ml) or LPS (100 ng/ml) for the determined times. Primary hepatocytes isolated from the livers of BI-1−/− and WT mice were treated with TM or LPS in the presence or absence of STF-083010 (60 μM) or Ac-YVAD-CMK (25 μM). Cell viability was determined by a colorimetric assay (MTT) detailed in Supporting Methods. […]

[2] = test system: primary hepatocytes isolated from the livers of BI-1−/− and WT mice; test: Primary hepatocyte viability (MTT) with TM or LPS; assay type: cell-based, mouse
Description: Hepatocytes from mouse liver were isolated by a two-step collagenase procedure, as we described18,23 and cultured in media detailed in Supporting Methods. When indicated, primary hepatocytes were transfected with Stealth siRNA (targeting BI-1, IRE1α, XBP1 or CHOP with the corresponding control of Low or Medium CG) at 30 nM using Lipofectamine RNAiMAX (ThermoFisher Scientific, Courtaboeuf, France) according to the manufacturer's instructions. After 48 hr of transfection, cells were treated with TM (1 μg/ml) or LPS (100 ng/ml) for the determined times. Primary hepatocytes isolated from the livers of BI-1−/− and WT mice were treated with TM or LPS in the presence or absence of STF-083010 (60 μM) or Ac-YVAD-CMK (25 μM). Cell viability was determined by a colorimetric assay (MTT) detailed in Supporting Methods. Results are presented as a percentage of the control values.

HFD-fed BI-1−/− mice = test: HFD- or ND-fed BI-1+/+ and BI-1−/− mice treated with STF-083010 (NASH development); assay type: in vivo, mouse
Description: FIG. 1A-C: Early Into HFD feeding, limiting the ER stress response by inhibiting IRE1α RNase activity protects from steatosis and hyperglycemia. Starting 2.5 months after HFD feeding, BI-1+/+ and BI-1−/− mice were treated with STF-083010 (30 mg/kg) or vehicle (NT, Kolliphor 16%) twice a week for 2 weeks before sacrifice. (A) Relative liver triglyceride levels.
(A) Protocol timeline for vehicle (NT, Kolliphor 16%) or STF-083010 (30 mg/kg) injections in HFD-fed BI-1+/+ and BI-1−/− mice. (B) qPCR analysis of hepatic genes involved in lipid synthesis and metabolism (n=3). […] (C) Blood glucose concentrations in fed BI-1+/+ and BI-1−/− mice (n=6).
All animal procedures were conducted in compliance with French guidelines for the humane care and use of experimental animals. Male mice with targeted disruption of the BI-1 gene representing BI-1+/+(WT) and BI-1−/− littermates on a C57BL/6 background were obtained from Dr. John C. Reed at the Stanford-Burnham Institute for Medical Research (La Jolla, CA, USA)17,18. Experiments conducted with 12-week old mice included: 1) Mice injected intraperitoneally with TM (1 mg/kg) or vehicle and sacrificed 48 hr after treatment (unless otherwise indicated), 2) Animals either fed a ND (A04—Safe Diet, Augy, France) or HFD (60 kJ % fat, D12492-ssniff, Soest, Germany) for up to 9 months, 3) Towards the end of a 3-month ND or HFD, mice were injected with STF-083010 (30 mg/kg) or vehicle twice a week for 2 weeks before sacrifice. Mice were housed in a controlled environment with 12 hr light/dark cycles with water available ad libitum.
Liver tissue specimens were fixed in 10% buffered formalin, embedded in paraffin, sectioned (5 μm thick) and stained with either H&E, Masson's trichrome, MPO or TUNEL (Roche Molecular Biochemicals, Meylan, France). Specimens were evaluated by microscopy in a blinded manner by a liver pathologist.
as §3, §4
Serum AST and ALT levels were determined using a standardized UV test after activation with pyridoxal-phosphate and serum triglyceride levels were determined by standardized enzymatic colorimetric assay (Roche-Hitachi analyzer Cobas 8000, Meylan, France). Hepatic triglyceride content was measured using a Triglycerides FS 10′ kit (DiaSys, Holzheim, Germany). Cytokines were quantitatively measured by flow cytometry as described15.

HCC cell lines = test: Apoptosis induction in HCC cell lines; assay type: cell-based; details: 24 hours
Description: as §1, §2

[3] = BI-1−/− mice after 3 months of HFD
[4] = BI-1−/− mice, twice a week for 2 weeks towards the end of a 3-month HFD

T1 sequence (Q9EQY0 21-977): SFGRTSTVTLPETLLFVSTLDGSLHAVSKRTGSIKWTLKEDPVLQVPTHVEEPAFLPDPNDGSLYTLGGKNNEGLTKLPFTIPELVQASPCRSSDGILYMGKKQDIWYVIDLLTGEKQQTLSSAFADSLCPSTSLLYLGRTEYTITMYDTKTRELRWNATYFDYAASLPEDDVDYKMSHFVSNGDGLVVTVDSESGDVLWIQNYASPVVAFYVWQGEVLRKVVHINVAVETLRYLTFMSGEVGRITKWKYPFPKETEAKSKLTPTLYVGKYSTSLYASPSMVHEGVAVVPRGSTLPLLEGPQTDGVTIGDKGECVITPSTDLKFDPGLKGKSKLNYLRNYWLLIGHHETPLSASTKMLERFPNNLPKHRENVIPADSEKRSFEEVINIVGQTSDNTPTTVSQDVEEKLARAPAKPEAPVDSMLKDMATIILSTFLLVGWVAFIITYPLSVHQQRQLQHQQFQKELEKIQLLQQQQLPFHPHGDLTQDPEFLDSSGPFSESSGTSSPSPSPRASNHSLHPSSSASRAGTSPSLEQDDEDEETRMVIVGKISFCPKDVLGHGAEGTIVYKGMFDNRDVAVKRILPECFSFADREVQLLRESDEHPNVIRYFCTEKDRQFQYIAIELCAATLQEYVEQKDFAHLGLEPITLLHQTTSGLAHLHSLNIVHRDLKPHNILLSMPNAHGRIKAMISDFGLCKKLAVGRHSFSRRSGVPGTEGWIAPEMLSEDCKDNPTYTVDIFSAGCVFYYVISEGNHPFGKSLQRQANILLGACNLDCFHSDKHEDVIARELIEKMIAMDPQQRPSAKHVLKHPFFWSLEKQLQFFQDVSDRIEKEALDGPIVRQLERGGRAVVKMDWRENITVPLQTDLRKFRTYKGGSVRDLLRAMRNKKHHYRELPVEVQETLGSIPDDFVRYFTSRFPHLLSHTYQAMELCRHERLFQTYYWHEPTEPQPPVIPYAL

With Cc1cc(=O)oc2c(C=O)c(O)ccc12 [4μ8c] the “liver cancer cell proliferation and apoptosis, alone and co-treated with sorafenib (confirmation of the STF-083010 data)” value [1] was “confirmed”.

With COc1cc2c(C)c(CC(=O)N3CCOCC3)c(=O)oc2c(C=O)c1O [MKC6688] the “liver cancer cell proliferation and apoptosis, alone and co-treated with sorafenib (confirmation of the STF-083010 data)” value [1] was “confirmed” and the “sorafenib-mediated tumor suppression (confirmation of the STF-083010 data)” value (xenograft HepG2 cells; data not shown) was “confirmed”.

CN1C(=O)C(Cc2c[nH]c3ccccc23)NC1=S (stereo not shown) [Necrostatin-1] was tested, and the “effect of Sorafenib and SFT-083010 on cancer cell proliferation after pre-treatment” value ([1]; HepG2, 50 μM pre-treatment, Sorafenib 5 μM, STF 60 μM, 24 hours, FIGS. 5A and 5B) was “inhibit the effect”.

For O=S(=O)(N=Cc1c(O)ccc2ccccc12)c1cccs1 [STF-083010, N-[(2-Hydroxy-1-naphthalenyl)methylene]-2-thiophenesulfonamide], the “XBP1 mRNA levels” value (IRE1α RNase activity) was “decrease”, the sXBP1 protein (IRE1α RNase activity) was “decrease” and the “overexpression of active caspase-11 and NLRP3” value (NLRP3 inflammasome) was “limited”. The “viability of WT hepatocytes” value ([2]; STF-083010 alone, 60 μM) was “compromised the viability”, the “viability of BI-1−/− hepatocytes” value ([2]; co-treated with TM and LPS, STF-083010 60 μM) was “improved the viability” and the NASH development (HFD-fed BI-1−/− mice; BI-1-deficient mice, HFD) was “rescuing from NASH; also recorded: reverses the propensity”. The “histological signs of inflammation and grade-3 steatosis” value (HFD-fed BI-1−/− mice; BI-1−/− HFD mice, 30 mg/kg twice a week for 2 weeks) was “suppressed”, the “activation of caspase-1/-11 and NLRP3 proteins” value (HFD-fed BI-1−/− mice; BI-1−/− HFD-fed mice) was “counteracted the activation” and the “mRNA levels of NLRP3 inflammasome and pro-inflammatory response components” value (HFD-fed BI-1−/− mice; BI-1−/− HFD-fed mice) was “normalized”. For the same compound, the “collagen accumulation with cellular infiltration” value (HFD-fed BI-1−/− mice; [3]) was “prevented”, the “hepatic Col6a3 upregulation” value (HFD-fed BI-1−/− mice; [3]) was “significantly limited” and the “liver discoloration (macroscopic)” value (HFD-fed BI-1−/− mice; BI-1−/− mice fed a HFD for 3 months, 30 mg/kg twice a week for 2 weeks) was “prevented”. For the same compound, the “IRE1a endoribonuclease activity in vivo” value (HFD-fed BI-1−/− mice; [4]) was “effectively counteracted”, the glucose tolerance (HFD-fed BI-1−/− mice; [4]) was “improving” and the “mRNA levels of metabolic master regulators (SREBP1, FASN and c-JUN)” value (HFD-fed BI-1−/− mice; HFD-fed BI-1−/− mice, liver qPCR, FIG. 2B) was “within normal mRNA levels”. For the same compound, the “lipid droplet diameter in hepatocytes” value (HFD-fed BI-1−/− mice; HFD-fed BI-1−/− mice, 30 mg/kg twice a week for 2 weeks) was “from massive to average size”, the liver triglyceride content (HFD-fed BI-1−/− mice; HFD-fed BI-1−/− mice, 30 mg/kg twice a week for 2 weeks, FIG. 1A) was “Normalized” and the liver injury (HFD-fed BI-1−/− mice; HFD-fed mice, both genotypes) was “protected from liver injury”. The blood glucose concentrations (HFD-fed BI-1−/− mice; HFD-fed mice, FIG. 2C) was “normalization”, the “appearance of the liver” value (HFD-fed BI-1−/− mice; ND-fed mice) was “did not alter” and the MPO-positive cells (HFD-fed BI-1−/− mice; STF-083010-treated versus untreated mice fed a HFD) was “significant decrease”. The “increase in BI-1 mRNA levels” value (HFD-fed BI-1−/− mice; WT mice fed a HFD, FIG. 1C) was 15%, the “CHOP/GRP78 ratio, protein and mRNA levels” value (HFD-fed BI-1−/− mice; livers from BI-1−/− mice, HFD) was “reduced” and the “expression of IRE1α RNase target sXBP1, protein and mRNA levels” value (HFD-fed BI-1−/− mice; livers from BI-1−/− mice, HFD) was “reduced”. For the same compound, the “liver cancer cell proliferation” value ([1]; HepG2, Huh7 and Hep3B, 60 μM alone, 24 hours, FIG. 3A) was “reduces”, the “effectiveness of sorafenib in reducing liver cancer cell proliferation” value ([1]; co-treated with Sorafenib 5 μM, STF 60 μM added one hour before, 24 hours, FIG. 3A) was “improves their effectiveness” and the “effectiveness of sorafenib in inducing apoptosis” value (HCC cell lines; HCC cell lines, co-treated with Sorafenib 5 μM, STF 60 μM, FIG. 3B) was “improves their effectiveness”. The “sorafenib-mediated tumor suppression (tumor volume)” value (xenograft HepG2 cells; STF-083010 30 mg/kg i.p. twice a week with Sorafenib 30 mg/kg i.p. daily, FIG. 6B) was “increased”.

For Ac-YVAD-CMK, the “effectiveness of sorafenib in reducing liver cancer cell proliferation” value ([1]; HepG2, YVAD 25 μM added one hour before Sorafenib, 24 hours, not more efficiently than SFT-083010, FIG. 4) was “enhances” and the “effectiveness of sorafenib in inducing apoptosis” value (HCC cell lines; HepG2, YVAD 25 μM added one hour before Sorafenib, not more efficiently than SFT-083010, FIG. 4) was “enhances”.

Source: patent US20240024281A1, “METHODS AND COMPOSITIONS FOR TREATING LIVER DISEASES” (INSTITUT NATIONAL DE LA SANTÉ ET DE LA RECHERCHE MÉDICALE, priority 2018, published 2024)
